# What was measured:
# [1] = system: Enterococcus faecium UL602570 (vanA, clinical isolate); format: cell-based; conditions: UL602570 (vanA, clinical isolate, 18 h)
# Experimental: (§1) The minimum inhibitory concentration (MIC) was determined by microdilution following the EUCAST and CLSI guidelines via the broth microdilution assay on a 96-well plate. Substances were dissolved in saline solution (0.9%) at a concentration equimolar to 1.28 mg/mL vancomycin. With an increasing hydrophobicity, some substances had to be pre-dissolved in DMSO. The final concentration of DMSO remained below 1.5% and was compared to the DMSO control (no antimicrobial effect was observed up to the highest concentration tested (10%)). All substances were serially diluted on the 96-well plate using Mueller-Hinton-Broth II (cation adjusted). Vancomycin was always used as a control. For bacterial loading, an overnight culture of the referring strain was taken and adjusted to a turbidity corresponding to 10^8 cfu/mL. The bacterial suspension was further diluted to load a bacterial number of 10^6 cfu/mL on the 96-well plate and incubate it for 18 h at 35 ± 1 °C, as described before. MIC was defined as the lowest concentration without visible growth.
# [2] = system: Enterococcus casseliflavus ATCC 700327 (vanC); format: cell-based; conditions: ATCC 700327, 18 h
# Experimental: as §1
# [3] = system: E. faecalis ATCC 51299 (vanB); format: cell-based, Enterococcus faecalis; conditions: ATCC 51299, 18 h
# Experimental: as §1
# [4] = system: E. faecium ATCC 51559 (vanA); format: cell-based, Enterococcus faecium; conditions: ATCC 51559, 18 h
# Experimental: as §1
SMILES,MIC median [1],MIC range [1],further results
CCCCCCCCCCCCCCCC(=O)N[C@@H](CCCNC(=N)N)C(=O)N[C@@H](CCCNC(=N)N)C(=O)N[C@@H](CCCNC(=N)N)C(=O)N[C@@H](CSC1CC(=O)N(CC2CCC(C(=O)NCCNC(=O)[C@H]3NC(=O)[C@H]4NC(=O)[C@H](NC(=O)[C@@H]5NC(=O)[C@H](CC(N)=O)NC(=O)[C@H](NC(=O)[C@@H](CC(C)C)NC)[C@H](O)c6ccc(c(Cl)c6)Oc6cc5cc(c6O[C@@H]5O[C@H](CO)[C@@H](O)[C@H](O)[C@H]5O[C@H]5C[C@](C)(N)[C@H](O)[C@H](C)O5)Oc5ccc(cc5Cl)[C@H]4O)c4ccc(O)c(c4)-c4c(O)cc(O)cc43)CC2)C1=O)C(N)=O (stereo partly drawn) [VC-R3C-C16],5.00 µg/mL,5.00 to 10.00 µg/mL,
CCCCCCCC(=O)N[C@@H](CCCNC(=N)N)C(=O)N[C@@H](CCCNC(=N)N)C(=O)N[C@@H](CCCNC(=N)N)C(=O)N[C@@H](CSC1CC(=O)N(CC2CCC(C(=O)NCCNC(=O)[C@H]3NC(=O)[C@H]4NC(=O)[C@H](NC(=O)[C@@H]5NC(=O)[C@H](CC(N)=O)NC(=O)[C@H](NC(=O)[C@@H](CC(C)C)NC)[C@H](O)c6ccc(c(Cl)c6)Oc6cc5cc(c6O[C@@H]5O[C@H](CO)[C@@H](O)[C@H](O)[C@H]5O[C@H]5C[C@](C)(N)[C@H](O)[C@H](C)O5)Oc5ccc(cc5Cl)[C@H]4O)c4ccc(O)c(c4)-c4c(O)cc(O)cc43)CC2)C1=O)C(N)=O (stereo partly drawn) [VC-R3C-C8],9.54 µg/mL,9.54 to 19.08 µg/mL,
CCCCCCCCCCCCCCCCCC(=O)N[C@@H](CCCNC(=N)N)C(=O)N[C@@H](CCCNC(=N)N)C(=O)N[C@@H](CCCNC(=N)N)C(=O)N[C@@H](CSC1CC(=O)N(CC2CCC(C(=O)N(C)[C@H](CC(C)C)C(=O)N[C@H]3C(=O)N[C@@H](CC(N)=O)C(=O)N[C@H]4C(=O)N[C@H]5C(=O)N[C@H](C(=O)N[C@H](C(=O)O)c6cc(O)cc(O)c6-c6cc5ccc6O)[C@H](O)c5ccc(c(Cl)c5)Oc5cc4cc(c5O[C@@H]4O[C@H](CO)[C@@H](O)[C@H](O)[C@H]4O[C@H]4C[C@](C)(N)[C@H](O)[C@H](C)O4)Oc4ccc(cc4Cl)[C@H]3O)CC2)C1=O)C(N)=O (stereo partly drawn) [VN-R3C-C18],4.97 µg/mL,2.48 to 4.97 µg/mL,
CC(C)C[C@H](C(=O)N[C@H]1C(=O)N[C@@H](CC(N)=O)C(=O)N[C@H]2C(=O)N[C@H]3C(=O)N[C@H](C(=O)N[C@H](C(=O)O)c4cc(O)cc(O)c4-c4cc3ccc4O)[C@H](O)c3ccc(c(Cl)c3)Oc3cc2cc(c3O[C@@H]2O[C@H](CO)[C@@H](O)[C@H](O)[C@H]2O[C@H]2C[C@](C)(N)[C@H](O)[C@H](C)O2)Oc2ccc(cc2Cl)[C@H]1O)N(C)C(=O)C1CCC(CN2C(=O)CC(SC[C@H](NC(=O)[C@H](CCCNC(=N)N)NC(=O)[C@H](CCCNC(=N)N)NC(=O)[C@@H](N)CCCNC(=N)N)C(N)=O)C2=O)CC1 (stereo partly drawn) [VN-R3C],67.75 µg/mL,32.00 to 67.75 µg/mL,
CCCCCCCCCCCC(=O)N[C@@H](CCCNC(=N)N)C(=O)N[C@@H](CCCNC(=N)N)C(=O)N[C@@H](CCCNC(=N)N)C(=O)N[C@@H](CSC1CC(=O)N(CC2CCC(C(=O)NCCN[C@@]3(C)C[C@H](O[C@H]4[C@H](Oc5c6cc7cc5Oc5ccc(cc5Cl)[C@@H](O)[C@@H](NC(=O)[C@@H](CC(C)C)NC)C(=O)N[C@@H](CC(N)=O)C(=O)N[C@H]7C(=O)N[C@H]5C(=O)N[C@H](C(=O)N[C@H](C(=O)O)c7cc(O)cc(O)c7-c7cc5ccc7O)[C@H](O)c5ccc(c(Cl)c5)O6)O[C@H](CO)[C@@H](O)[C@@H]4O)O[C@@H](C)[C@H]3O)CC2)C1=O)C(N)=O (stereo partly drawn) [VV-R3C-C12],0.24 µg/mL,0.06 to 0.48 µg/mL,MIC median [2]: 2.5 µg/mL; MIC range [2]: 0.5 to 4 µg/mL; MIC median [3]: 4 µg/mL; MIC median [4]: 3.88 µg/mL; MIC range [4]: 3.88 to 7.75 µg/mL
CCCCCCCCCC(=O)N[C@@H](CCCNC(=N)N)C(=O)N[C@@H](CCCNC(=N)N)C(=O)N[C@@H](CCCNC(=N)N)C(=O)N[C@@H](CSC1CC(=O)N(CC2CCC(C(=O)NCCN[C@@]3(C)C[C@H](O[C@H]4[C@H](Oc5c6cc7cc5Oc5ccc(cc5Cl)[C@@H](O)[C@@H](NC(=O)[C@@H](CC(C)C)NC)C(=O)N[C@@H](CC(N)=O)C(=O)N[C@H]7C(=O)N[C@H]5C(=O)N[C@H](C(=O)N[C@H](C(=O)O)c7cc(O)cc(O)c7-c7cc5ccc7O)[C@H](O)c5ccc(c(Cl)c5)O6)O[C@H](CO)[C@@H](O)[C@@H]4O)O[C@@H](C)[C@H]3O)CC2)C1=O)C(N)=O (stereo partly drawn) [VV-R3C-C10],0.63 µg/mL,0.05 to 0.84 µg/mL,
CCCCCCCCCCCCCCCCCC(=O)N[C@@H](CCCNC(=N)N)C(=O)N[C@@H](CCCNC(=N)N)C(=O)N[C@@H](CCCNC(=N)N)C(=O)N[C@@H](CSC1CC(=O)N(CC2CCC(C(=O)NCCN[C@@]3(C)C[C@H](O[C@H]4[C@H](Oc5c6cc7cc5Oc5ccc(cc5Cl)[C@@H](O)[C@@H](NC(=O)[C@@H](CC(C)C)NC)C(=O)N[C@@H](CC(N)=O)C(=O)N[C@H]7C(=O)N[C@H]5C(=O)N[C@H](C(=O)N[C@H](C(=O)O)c7cc(O)cc(O)c7-c7cc5ccc7O)[C@H](O)c5ccc(c(Cl)c5)O6)O[C@H](CO)[C@@H](O)[C@@H]4O)O[C@@H](C)[C@H]3O)CC2)C1=O)C(N)=O (stereo partly drawn) [VV-R3C-C18],2.54 µg/mL,1.27 to 2.54 µg/mL,
CN[C@H](CC(C)C)C(=O)N[C@H]1C(=O)N[C@@H](CC(N)=O)C(=O)N[C@H]2C(=O)N[C@H]3C(=O)N[C@H](C(=O)N[C@H](C(=O)NCCNC(=O)C4CCC(CN5C(=O)CC(SC[C@H](NC(=O)[C@H](CCCNC(=N)N)NC(=O)[C@H](CCCNC(=N)N)NC(=O)[C@@H](N)CCCNC(=N)N)C(N)=O)C5=O)CC4)c4cc(O)cc(O)c4-c4cc3ccc4O)[C@H](O)c3ccc(c(Cl)c3)Oc3cc2cc(c3O[C@@H]2O[C@H](CO)[C@@H](O)[C@H](O)[C@H]2O[C@H]2C[C@](C)(N)[C@H](O)[C@H](C)O2)Oc2ccc(cc2Cl)[C@H]1O (stereo partly drawn) [VC-R3C],34.75 µg/mL,17.38 to 34.75 µg/mL,
CCCCCCCCCCCCCCCC(=O)N[C@@H](CCCNC(=N)N)C(=O)N[C@@H](CCCNC(=N)N)C(=O)N[C@@H](CCCNC(=N)N)C(=O)N[C@@H](CSC1CC(=O)N(CC2CCC(C(=O)N(C)[C@H](CC(C)C)C(=O)N[C@H]3C(=O)N[C@@H](CC(N)=O)C(=O)N[C@H]4C(=O)N[C@H]5C(=O)N[C@H](C(=O)N[C@H](C(=O)O)c6cc(O)cc(O)c6-c6cc5ccc6O)[C@H](O)c5ccc(c(Cl)c5)Oc5cc4cc(c5O[C@@H]4O[C@H](CO)[C@@H](O)[C@H](O)[C@H]4O[C@H]4C[C@](C)(N)[C@H](O)[C@H](C)O4)Oc4ccc(cc4Cl)[C@H]3O)CC2)C1=O)C(N)=O (stereo partly drawn) [VN-R3C-C16],2.45 µg/mL,2.45 to 4.89 µg/mL,
CCCCCCCCCCCCCC(=O)N[C@@H](CCCNC(=N)N)C(=O)N[C@@H](CCCNC(=N)N)C(=O)N[C@@H](CCCNC(=N)N)C(=O)N[C@@H](CSC1CC(=O)N(CC2CCC(C(=O)NCCN[C@@]3(C)C[C@H](O[C@H]4[C@H](Oc5c6cc7cc5Oc5ccc(cc5Cl)[C@@H](O)[C@@H](NC(=O)[C@@H](CC(C)C)NC)C(=O)N[C@@H](CC(N)=O)C(=O)N[C@H]7C(=O)N[C@H]5C(=O)N[C@H](C(=O)N[C@H](C(=O)O)c7cc(O)cc(O)c7-c7cc5ccc7O)[C@H](O)c5ccc(c(Cl)c5)O6)O[C@H](CO)[C@@H](O)[C@@H]4O)O[C@@H](C)[C@H]3O)CC2)C1=O)C(N)=O (stereo partly drawn) [VV-R3C-C14],0.46 µg/mL,0.31 to 0.62 µg/mL,
CCCCCCCCCCCC(=O)N[C@@H](CCCNC(=N)N)C(=O)N[C@@H](CCCNC(=N)N)C(=O)N[C@@H](CCCNC(=N)N)C(=O)N[C@H](Cc1ccc(O)cc1)C(=O)N[C@@H](CSC1CC(=O)N(CC2CCC(C(=O)NCCN[C@@]3(C)C[C@H](O[C@H]4[C@H](Oc5c6cc7cc5Oc5ccc(cc5Cl)[C@@H](O)[C@@H](NC(=O)[C@@H](CC(C)C)NC)C(=O)N[C@@H](CC(N)=O)C(=O)N[C@H]7C(=O)N[C@H]5C(=O)N[C@H](C(=O)N[C@H](C(=O)O)c7cc(O)cc(O)c7-c7cc5ccc7O)[C@H](O)c5ccc(c(Cl)c5)O6)O[C@H](CO)[C@@H](O)[C@@H]4O)O[C@@H](C)[C@H]3O)CC2)C1=O)C(N)=O (stereo partly drawn) [VV-R3yC-C12],1.02 µg/mL,0.25 to 2.03 µg/mL,
CCCCCCCCCCCCCCCC(=O)N[C@@H](CCCNC(=N)N)C(=O)N[C@@H](CCCNC(=N)N)C(=O)N[C@@H](CCCNC(=N)N)C(=O)N[C@@H](CSC1CC(=O)N(CC2CCC(C(=O)NCCN[C@@]3(C)C[C@H](O[C@H]4[C@H](Oc5c6cc7cc5Oc5ccc(cc5Cl)[C@@H](O)[C@@H](NC(=O)[C@@H](CC(C)C)NC)C(=O)N[C@@H](CC(N)=O)C(=O)N[C@H]7C(=O)N[C@H]5C(=O)N[C@H](C(=O)N[C@H](C(=O)O)c7cc(O)cc(O)c7-c7cc5ccc7O)[C@H](O)c5ccc(c(Cl)c5)O6)O[C@H](CO)[C@@H](O)[C@@H]4O)O[C@@H](C)[C@H]3O)CC2)C1=O)C(N)=O (stereo partly drawn) [VV-R3C-C16],2.50 µg/mL,2.50 to 3.50 µg/mL,
CCCCCC(=O)N[C@@H](CCCNC(=N)N)C(=O)N[C@@H](CCCNC(=N)N)C(=O)N[C@@H](CCCNC(=N)N)C(=O)N[C@@H](CSC1CC(=O)N(CC2CCC(C(=O)NCCNC(=O)[C@H]3NC(=O)[C@H]4NC(=O)[C@H](NC(=O)[C@@H]5NC(=O)[C@H](CC(N)=O)NC(=O)[C@H](NC(=O)[C@@H](CC(C)C)NC)[C@H](O)c6ccc(c(Cl)c6)Oc6cc5cc(c6O[C@@H]5O[C@H](CO)[C@@H](O)[C@H](O)[C@H]5O[C@H]5C[C@](C)(N)[C@H](O)[C@H](C)O5)Oc5ccc(cc5Cl)[C@H]4O)c4ccc(O)c(c4)-c4c(O)cc(O)cc43)CC2)C1=O)C(N)=O (stereo partly drawn) [VC-R3C-C6],106.00 µg/mL,,

# From article PMC7345083, “Vancomycin-Lipopeptide Conjugates with High Antimicrobial Activity on Vancomycin-Resistant Enterococci” (Pharmaceuticals, 2020)
